This note sets out measurements from PubChem BioAssay (NCI).

What all share (assay): NCI-60 cell line screen, 48 h
Assay [1] concerns SK-MEL-2 melanoma.
Assay [2] has as its system PC-3 prostate.
For assay [3], the system named is SNB-19 CNS.
For assay [4], the system named is A549 NSCLC.
For assay [5], the system named is HL-60(TB) leukemia.
Assay [6] concerns M14 melanoma.
The test system of assay [7] is HCC-2998 colon.
Assay [8] concerns CAKI-1 renal.
Assay [9] relates to NCI-H226 lung.
Assay [10] has as its system RXF 393 renal.

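Protocol summary: plate cells (96-well), add compound at 5 concentrations, incubate 48 h, interpolate endpoints linearly. GI50: concentration for 50% inhibition of growth. TGI: concentration producing complete growth inhibition.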

As to `Cc1cc2nc3c4ccccc4n(CCN(C)C)c3nc2cc1C`, the GI50 was 1.9 µM in assay [1]; 2.01 µM in assay [2]; 2.33 µM in assay [3]; 1.28 µM in assay [4]; 1.99 µM in [5]; 1.51 µM in assay [6]. In addition, the GI50 was 1.47 µM in [7], 0.982 µM in assay [8], 2.01 µM in assay [9] and 1.56 µM in assay [10]. In addition, the TGI in assay [1] is 4.24 µM; in assay [2], 8.19 µM; in assay [3], 12.3 µM; in assay [4], 11.5 µM; in assay [5], 6.26 µM; in [6], 3.36 µM. For the same compound, the TGI in assay [7] is 4.13 µM; in assay [8], 12.2 µM; in assay [9], 6.99 µM; in [10], 4.1 µM.

As to `N#CSCC(=O)c1ccc(Cl)cc1`, the GI50 is 5.45 µM in [1]; 3.95 µM in assay [2]; 14.1 µM in [3]; 9.14 µM in assay [4]; 3.4 µM in [6]; 12.1 µM in [7]. The figures for the GI50 in assay [8], in assay [9] and in assay [10] were 0.0182 µM, 10.8 µM and 2.05 µM, respectively. Also, the TGI in assay [1] was 25.7 µM; in assay [2] it was 57.5 µM; in assay [3] it was more than 73 µM; in assay [4] it was more than 49.7 µM; in [5] it was more than 22.3 µM; in [6], 15.1 µM. In addition, the TGI in assay [7] is 27.8 µM; in assay [8] it was 1.16 µM; in [9], 33.3 µM; in assay [10] it was 5.18 µM.

As for `C/C(=N\Nc1cccc(Cl)n1)c1ccccn1`, the GI50 is 2.72 µM in assay [1]; 0.89 µM in [2]; 1.23 µM in assay [3]; 0.932 µM in [4]; 0.446 µM in assay [5]; 0.737 µM in assay [6]. The GI50 was 0.75 µM in assay [7], 0.437 µM in [8], 0.978 µM in assay [9] and 0.982 µM in [10]. The TGI in assay [1] is more than 100 µM; in assay [2], more than 100 µM; in [3] it was more than 100 µM; in assay [4], more than 100 µM; in [5], 3.94 µM; in [6], 14.3 µM. For the same compound, the TGI in assay [7] was more than 100 µM; in assay [8], 7.31 µM; in [9], 6.57 µM; in [10] it was 16.1 µM.

With `Nc1cccc2nsnc12`, the TGI in assay [1] is more than 100 µM; in [2], more than 100 µM; in assay [3] it was more than 100 µM; in [4] it was more than 100 µM; in assay [5], 26.7 µM; in [6], more than 100 µM. Besides, the TGI in [7], in assay [8], in assay [9] and in assay [10] was more than 100 µM in each case.

As to `CCNCCNc1cc(-c2cccc(C(F)(F)F)c2)c(C#N)c2nc3ccccc3n12`, the GI50 was 1.87 µM in assay [1]; 1.83 µM in assay [2]; 1.99 µM in assay [3]; 1.48 µM in assay [4]; 2.23 µM in assay [5]; 1.71 µM in assay [6]. In addition, the GI50 in [7] is 1.65 µM; in [8], 1.54 µM; in assay [9], 1.64 µM; in assay [10], 1.49 µM. Moreover, the TGI is 3.59 µM in [1]; 3.54 µM in [2]; 3.97 µM in assay [3]; 3 µM in assay [4]; 4.21 µM in [5]; 3.25 µM in assay [6]. Besides, the TGI in assay [7] was 3.13 µM; in [8], 3 µM; in [9], 3.64 µM; in assay [10], 3.1 µM.

For `Brc1ccc(Br)nn1`, the GI50 was 2.91 µM in assay [1]; 4.41 µM in assay [2]; 3.77 µM in assay [3]; 12.5 µM in assay [4]; 1.22 µM in [5]; 1.39 µM in assay [6]. Moreover, the GI50 in assay [7] was 1.98 µM; in [8], 1.96 µM; in assay [9] it was 2.28 µM; in assay [10], 1.32 µM. Further, the TGI in [1] was 20.4 µM; in assay [2], 22 µM; in assay [3], 15.5 µM; in assay [4], 32.4 µM; in assay [5] it was 4.85 µM; in assay [6] it was 2.82 µM. For the same compound, the TGI in assay [7] was 4.94 µM; in assay [8] it was 5.07 µM; in [9] it was 5.57 µM; in [10], 2.63 µM.

Regarding `CC(=O)OCC(=O)C1(O)C(C)CC2C3C=C(C)C4=Cc5c(cnn5-c5ccccc5)CC4(C)C3C(O)CC21C` (stereo not drawn), the GI50 in [1] was 1.66 µM; in assay [2] it was 1.69 µM; in [3], 2.31 µM; in assay [4], 1.34 µM; in assay [5] it was 2.44 µM; in [6], 1.76 µM. For the same compound, the GI50 is 1.92 µM in assay [7], 2.35 µM in [8], 2.16 µM in [9] and 0.781 µM in [10]. For the same compound, the TGI in assay [1] was 3.85 µM; in [2] it was 5.83 µM; in assay [3], 11.9 µM; in [4], 13.5 µM; in assay [5] it was 9.74 µM; in [6] it was 3.69 µM. Also, the TGI amounted to 3.66 µM in [7], 10.1 µM in assay [8], 11.2 µM in [9] and 2.39 µM in assay [10].

Take `COc1cc(C2C(C#N)=C(N)Oc3cc4c(cc32)OCO4)cc2c1OCO2` (stereo not drawn): the GI50 was 0.525 µM in [1]; 0.278 µM in [2]; 0.709 µM in assay [3]; 0.384 µM in assay [4]; 0.219 µM in [5]; 0.418 µM in assay [6]. For the same compound, the GI50 in [7] was 0.352 µM; in assay [8], 0.382 µM; in assay [9] it was 0.273 µM; in assay [10], 0.146 µM. For the same compound, the TGI is more than 100 µM in assay [1]; more than 100 µM in [2]; more than 100 µM in [3]; more than 100 µM in assay [4]; 0.715 µM in assay [5]; more than 100 µM in [6]. The TGI was 6.11 µM in [7], more than 100 µM in assay [8], 4.59 µM in [9] and 0.546 µM in [10].

For `C[C@@H](Oc1cc(-c2cnn(C3CC4(CCCNC4)C3)c2)cnc1N)c1c(Cl)ccc(F)c1Cl` (stereo partly drawn), the GI50 in assay [1] was 1.69 µM; in assay [2], 1.25 µM; in [3], 3.32 µM; in assay [4] it was 1.22 µM; in assay [5], 1.16 µM; in assay [6], 1.25 µM. Moreover, the GI50 in assay [7] was 1.51 µM; in assay [8] it was 2.08 µM; in assay [9] it was 2.29 µM; in assay [10], 1.28 µM. Besides, the TGI came to 3.24 µM in [1]; 6.83 µM in [2]; 14.4 µM in [3]; 4.12 µM in [4]; 3.01 µM in assay [5]; 2.66 µM in assay [6]. The TGI in assay [7] was 3.14 µM; in assay [8], 6.62 µM; in [9] it was 9.76 µM; in [10] it was 2.62 µM.

Consider `CNCCOc1nc2c3cnccc3cc(-c3cc(OC)c(OC)c(OC)c3)c2c2ccncc12`, for which the GI50 in [1] was 0.264 µM; in assay [2], 0.0471 µM; in [3], 0.0253 µM; in [4] it was 0.01 µM; in [5] it was less than 0.0153 µM; in assay [6] it was 0.0233 µM. Also, the GI50 in assay [7] was 0.0454 µM; in [8], 0.039 µM; in [9] it was 0.054 µM; in assay [10] it was 0.0469 µM. In addition, the TGI was determined as 0.683 µM in assay [1]; 1.12 µM in [2]; 0.349 µM in [3]; 0.101 µM in assay [4]; 0.0685 µM in assay [5]; 0.147 µM in assay [6]. Also, the TGI in [7] was 0.213 µM; in assay [8] it was 0.292 µM; in [9], 0.37 µM; in [10], 0.188 µM.

As to `COc1ccc(C2C3=C(COC3=O)N(CCO)c3cc4c(cc32)OCCO4)cc1OC` (stereo not drawn), the GI50 in assay [1] is 0.979 µM; in [2] it was 1.58 µM; in assay [4] it was 5.11 µM; in assay [5], 1.28 µM; in assay [6], 1.94 µM; in assay [7], 1.76 µM. The GI50 in assay [8] is 4.03 µM; in assay [9] it was more than 50 µM; in assay [10], 0.807 µM. Also, the TGI in assay [1] was 3.65 µM; in assay [2], more than 50 µM; in assay [3] it was more than 30.5 µM; in assay [4], more than 50 µM; in assay [5] it was 5.65 µM; in assay [6], more than 30.7 µM. Also, the TGI in [7] was 8.67 µM; in assay [8] it was more than 50 µM; in [9], more than 50 µM; in assay [10], 2.86 µM.

Consider `N#Cc1c(Oc2ccc(F)c(NC(=O)Cc3cccc(C(F)(F)F)c3)c2)ccc2nc(NC(=O)C3CC3)sc12`, for which the GI50 was 0.108 µM in assay [1]; 1.56 µM in assay [2]; 0.828 µM in [3]; 0.703 µM in assay [4]; 0.48 µM in assay [5]; 0.0275 µM in [6]. Moreover, the GI50 in assay [7] was 0.581 µM; in assay [8], 0.744 µM; in assay [9], 0.838 µM; in assay [10], 1.31 µM. Besides, the TGI was 0.83 µM in [1]; more than 100 µM in [2]; more than 100 µM in assay [3]; more than 100 µM in assay [4]; more than 100 µM in [5]; 2.95 µM in assay [6]. Also, the TGI in assay [7] was more than 100 µM; in assay [8], more than 100 µM; in [9] it was more than 100 µM; in [10], 5.39 µM.

For `C=C=[CH][Sn]([c]1ccccc1)([c]1ccccc1)[c]1ccccc1`, the GI50 is 1.84 µM in assay [1]; 1.46 µM in [2]; 1.81 µM in assay [3]; 1.91 µM in assay [4]; 1.78 µM in assay [5]; 1.81 µM in assay [6]. The GI50 in [7] was 1.76 µM; in assay [8] it was 1.74 µM; in [9], 2.28 µM; in assay [10], 1.07 µM. The TGI in [1] stood at 3.71 µM; in assay [2], 3.68 µM; in assay [3], 3.34 µM; in assay [4] it was 4.42 µM; in assay [5], 4.57 µM; in [6], 3.47 µM. Besides, the TGI in assay [7] was 3.36 µM; in [8], 4.29 µM; in assay [9] it was 4.6 µM; in assay [10] it was 2.28 µM.

`CC(C)N(C[C@H]1O[C@@H](n2cnc3c(N)ncnc32)[C@H](O)[C@@H]1O)C1CC(CCc2nc3ccc(C(C)(C)C)cc3[nH]2)C1` (stereo partly drawn): the GI50 in [1] is more than 69 µM; in assay [2] it was 97.9 µM; in assay [3], more than 100 µM; in [4], more than 100 µM; in assay [5], more than 65.9 µM; in [6], more than 72.2 µM. In addition, the GI50 was more than 100 µM in assay [7], more than 100 µM in assay [8], more than 100 µM in assay [9] and 21.2 µM in assay [10]. Moreover, the TGI in [1], in [2], in assay [3], in assay [4], in assay [5] and in assay [6] was more than 100 µM in each case. In addition, the TGI in assay [7], in assay [8], in assay [9] and in assay [10] was more than 100 µM each time.

In the case of `Cc1c(N2C(=O)/C(=C\c3ccc(N(C)C)cc3)N=C2c2ccccc2)c(=O)n(-c2ccccc2)n1C`, the GI50 in assay [1] was more than 100 µM; in assay [2], 29.7 µM; in assay [3], more than 100 µM; in assay [4] it was 79.1 µM; in assay [5], 40.2 µM; in assay [6] it was more than 100 µM. The GI50 is more than 100 µM in [7], more than 100 µM in assay [8], 72.2 µM in [9] and more than 100 µM in assay [10]. The TGI in [1], in assay [2], in assay [3], in assay [4], in assay [5] and in assay [6] was more than 100 µM throughout. The TGI in assay [7], in assay [8], in [9] and in assay [10] was more than 100 µM in each case.
